Data set [1] has as its system TR-iBRB2 cells. Description: Effect of compounds on [3H]amantadine uptake by TR-iBRB2 cells. Conditions: for [3H]amantadine uptake, % of Control, TR-iBRB2: [3H]amantadine 1.67 µM, 3 min, 37 °C. The data set is classed as in vitro ADME, rat. As for the experimental part:
(§1) In 10% fetal bovine serum (FBS; Merck, Darmstadt, Germany)-containing Dulbecco’s modified Eagle’s medium (DMEM; Nissui Pharmaceutical, Tokyo, Japan) with 20 mM NaHCO3, 0.19 mM benzylpenicillin potassium, and 0.14 mM streptomycin sulfate, TR-iBRB2 cells (passage number 32–60) were cultured according to previous reports. As described previously, RPE-J cells (passage number 79-92) were cultured in DMEM with 4% FBS, 20 mM NaHCO3, and 0.1 mM non-essential amino acid (FUJIFILM Wako Pure Chemical, Osaka, Japan) containing 0.16 mM benzylpenicillin potassium and 0.17 mM streptomycin sulfate. In accordance with established protocols for the uptake study, the cells were seeded at a density of 1.0 × 10^5 cells/well onto a collagen I-coated 24-well plate (BioCoat™ Collagen I Cellware, Corning, Corning, NY, USA) and cultured for 2 days, at 33 °C, under 5% CO2/air. Referring to the previous reports, we started the uptake reaction, and the details of the procedure are included in the Supplemental Materials.
(§2) Cell/medium ratio = [^3H]compound (dpm) per cell protein (mg)/[^3H]compound (dpm) per medium (µL)(2) […]
(§3) 7.4) three times at 37°C.
(§4) and KHCO3, respectively. Cl--free ECF buffer was prepared by replacing equimolar
(§5) protein assay kit (Bio-Rad, Hercules, CA, USA).

Data set [2] has as its system RPE-J cells. Description: Effect of compounds on [3H]amantadine uptake by RPE-J cells. The data set is classed as in vitro ADME, rat. Conditions: for [3H]amantadine uptake, % of Control, RPE-J: [3H]amantadine 1.67 µM, 3 min, 37 °C. The procedure: as §1, §2, §3, §4, §5
The test system of data set [3] is TR-iBRB2 cells. Description: Amantadine uptake by TR-iBRB2 cells (inner BRB model). It counts as in vitro ADME, rat. As for the experimental part:
as §1
(§6) Cell/medium ratio = [^3H]compound (dpm) per cell protein (mg)/[^3H]compound (dpm) per medium (µL)(2)
(§7) Kinetic parameters for cell uptake, such as the maximal uptake rate (Vmax), Michaelis–Menten constant (Km), and non-saturable uptake clearance (Kd), were obtained by using the nonlinear least-squares regression analysis program (MULTI) with Equations (3)–(5), where the uptake rate of the test compound and its concentration were V and S, respectively. V = (Vmax × S)/(Km + S)(3) V = (Vmax × S)/(Km + S) + Kd × S(4) V = (Vmax1 × S)/(Km1 + S) + (Vmax2 × S)/(Km2 + S)(5) […]
as §3, §4, §5

The subject of data set [4] is RPE-J cells. Description: Amantadine uptake by RPE-J cells (outer BRB model). The data set is classed as in vitro ADME, rat. The following applies: for Km1 (high-affinity process): 1.67 µM−10 mM. The procedure:
as §1, §6, §7, §3, §4, §5

For data set [5] the following is noted: cited from earlier work.
On the set-up of data set [6]: method as in ref 31 = [31]; 31. Grabowski T. Gumulka S.W. Borucka B. Raszewski W. Analysis relationships between pharmacokinetic parameters in silico/in vivo of selected antiviral drugs based on structural analysis Adv. Clin. Ex. The following applies: cited from earlier work.
The next data set concerns the target NMDA receptors. Further details: method as in ref 47 (Parsons et al.). Conditions: ref 47 (Parsons et al.); cited from earlier work.
The conditions of data set [7]: pharmacotherapy for Parkinson's disease; cited from earlier work.
Data set [8] deals with retina (blood–retinal barrier). Description: In vivo blood-to-retina transport, retinal uptake index (RUI) method. The following applies: co-administration of 50 mM compound, rat.
Data set [9] relates to TR-iBRB2 cells. Conditions: read-out: Km for uptake by TR-iBRB2 cells; cited from earlier work.
Where [10] appears, read: Rattus norvegicus, 0.05 h, read-out: [3H]amantadine uptake, % of Control, TR-iBRB2.
Setting [11] is: Rattus norvegicus, 0.05 h, read-out: [3H]amantadine uptake, % of Control, RPE-J.
Setting [12] is: pretreatment 30 mM NH4Cl, 15 s, 37 °C.

The source of these data is article PMC8469395 (Pharmaceutics, 2021).

Structures are written as SMILES. Read-outs that look alike come from different tables or passages of the source.

For orientation: Km means the concentration of substrate that gives half-maximal velocity. As a reminder, the pKa is the negative logarithm of the acid dissociation constant. As usually defined, the log D is the decadic logarithm of the distribution of all forms, ionised or not, between an organic phase and buffer at a given pH. Broadly, the IC50 is the concentration that gives 50% inhibition.

Take `CC(=O)Nc1nnc(S(N)(=O)=O)s1` [Acetazolamide]: in the data set on TR-iBRB2 cells [1] (compound 0.2 mM), the “[3H]amantadine uptake, % of Control, TR-iBRB2” value is reported as 90.9 ± 3.8 % of Control.
Consider `COc1ccc(CN(CCN(C)C)c2ccccn2)cc1` [Pyrilamine], for which, in the data set on TR-iBRB2 cells [1] (setting [10]), the activity at 200 µM was 20.9 ± 1.8%. In addition, in the data set with RPE-J cells [2] (setting [11]), the activity at 200 µM was found to be 77.8 ± 38.4% and the activity at 1000 µM is 18.2 ± 1.7%.
`C[N+](C)(C)CCO` [Choline]: the activity at 200 µM stood at 101 ± 8% in the data set on TR-iBRB2 cells [1] (setting [10]) and 124 ± 39% with RPE-J cells [2] (setting [11]).
Take `CC12CC3CC(C)(C1)CC(N)(C3)C2` [Memantine]: in the data set on TR-iBRB2 cells [1] (setting [10]), the activity at 200 µM was found to be 16.7 ± 2.2%. Moreover, in the data set with RPE-J cells [2] (setting [11]), the activity at 200 µM was 123 ± 38% and the activity at 1000 µM was determined as 27.1 ± 2.6%.
As to `C[N+](C)(C)C[C@H](O)CC(=O)[O-]` [L-Carnitine], the “[3H]amantadine uptake, % of Control, TR-iBRB2” value in the data set with TR-iBRB2 cells [1] (compound 0.2 mM) is given as 111 ± 35 % of Control; in the data set on TR-iBRB2 cells [1] (compound 2.5 mM), 99.5 ± 2.3 % of Control. In addition, the “[3H]amantadine uptake, % of Control, RPE-J” value in the data set on RPE-J cells [2] (compound 0.2 mM) is on record as 95.1 ± 5.2 % of Control; with RPE-J cells [2] (compound 2.5 mM), 119 ± 28 % of Control.
`NC12CC3CC(CC(C3)C1)C2` [Amantadine]: the “reduction of uptake at extracellular pH 6.4” value in the data set with TR-iBRB2 cells [3] was determined as 64%. Besides, in the data set on TR-iBRB2 cells [3] (4 °C vs 37 °C), the “reduction of uptake at 4 °C” value amounted to 86%. Moreover, in the data set on TR-iBRB2 cells [3] (37 °C, 3 min, 1.67 to 1000 µM), the Km is 79.4 µM and the Vmax is reported as 1.36 ± 0.38 nmol/(min·mg protein). The “reduction of uptake in Cl−-free buffer” value in the data set on TR-iBRB2 cells [3] (3 min, 37 °C) amounted to 38%. Further, the initial uptake rate with TR-iBRB2 cells [3] ([3H]amantadine 1.67 µM, 37 °C) is on record as 14.0 ± 4.1 µL/(min·mg protein). Also, the “decrease of uptake at alkalized intracellular pH” value in the data set on TR-iBRB2 cells [3] (acute 30 mM NH4Cl, 15 s, 37 °C) came out at 80%. In the data set on TR-iBRB2 cells [3] (setting [12]), the “increase of uptake at acidified intracellular pH” value turned out to be 90%. Moreover, in the data set with RPE-J cells [4], the “Km2 (low-affinity process)” value is reported as 9830 ± 1620 µM, the “Vmax1 (high-affinity process)” value was 0.914 ± 0.510 nmol/(min·mg protein), the “Vmax2 (low-affinity process)” value was 85.3 ± 11.4 nmol/(min·mg protein) and the “contribution of the high-affinity process” value was determined as 54%. In the data set on RPE-J cells [4], the “contribution of the low-affinity process” value is 46%, the “decrease of uptake at extracellular pH 6.4” value turned out to be 32%, the “increase of uptake at extracellular pH 8.4” value stood at 25% and the “Km1 (high-affinity process)” value is 90.5 ± 49.6 µM. Further, in the data set on RPE-J cells [4] (listed as amantadine), the “Km1 (high-affinity process)” value turned out to be 90.5 µM and the “Km2 (low-affinity process)” value was determined as 9830 µM. Moreover, the “reduction of uptake at 4 °C” value in the data set on RPE-J cells [4] (4 °C vs 37 °C) is on record as 87%. In addition, the initial uptake rate with RPE-J cells [4] ([3H]amantadine 1.67 µM, 37 °C) is listed as 15.9 ± 0.3 µL/(min·mg protein). The “decrease of uptake at alkalized intracellular pH” value in the data set with RPE-J cells [4] (acute 30 mM NH4Cl, 15 s, 37 °C) is 78%. Besides, in the data set on RPE-J cells [4] (setting [12]), the “increase of uptake at acidified intracellular pH” value is recorded as 18%. The activity at 200 µM in the data set with TR-iBRB2 cells [1] (setting [10]) was 34.1 ± 4.1%. Also, in the data set on RPE-J cells [2] (setting [11]), the activity at 200 µM was found to be 89.9 ± 5.6% and the activity at 1000 µM stood at 21.3 ± 3.1%. Further, the pKa in data set [5] is recorded as 10.1. Besides, in [6], the “log D” value is 0.176. In addition, at NMDA receptors, the IC50 is 20 µM. In addition, in data set [7], the plasma concentration range is 600 to 29000 nM. The “decrease of [3H]amantadine RUI” value in data set [8] was found to be 44%.
`CCc1nc(N)nc(N)c1-c1ccc(Cl)cc1` [Pyrimethamine]: the results for the activity at 200 µM in the data set with TR-iBRB2 cells [1] (setting [10]) and with RPE-J cells [2] (setting [11]) were 44.3 ± 8.8% and 88.9 ± 3.3%, respectively.
For the compound `NCC(=O)O` [Glycine], in the data set with TR-iBRB2 cells [1] (compound 2.5 mM), the “[3H]amantadine uptake, % of Control, TR-iBRB2” value was 102 ± 4 % of Control. Further, the “[3H]amantadine uptake, % of Control, RPE-J” value with RPE-J cells [2] (compound 2.5 mM) is given as 116 ± 13 % of Control.
For the compound `Nc1ccc(C(=O)NCC(=O)O)cc1` [PAH, p-aminohippuric acid], the results for the activity at 200 µM with TR-iBRB2 cells [1] (setting [10]) and with RPE-J cells [2] (setting [11]) were 85.8 ± 10.8% and 139 ± 33%, respectively.
Regarding `Clc1cccc(Cl)c1N=C1NCCN1` [Clonidine], in the data set with TR-iBRB2 cells [1] (setting [10]), the activity at 200 µM was found to be 42.1 ± 12.1%. Besides, the “reduction of [3H]amantadine uptake by TR-iBRB2 cells” value in the data set on TR-iBRB2 cells [1] (compound 0.2 mM) is listed as “more than 58%”. Besides, in the data set with RPE-J cells [2] (setting [11]), the activity at 200 µM was 71.6 ± 4.7% and the activity at 1000 µM was 30.8 ± 4%. Moreover, in the data set with TR-iBRB2 cells [9], the Km is 286 µM.
With `CNCCCN1c2ccccc2CCc2ccccc21` [Desipramine], the “[3H]amantadine uptake, % of Control, TR-iBRB2” value with TR-iBRB2 cells [1] (compound 0.2 mM) is 7.05 ± 0.57 % of Control. Further, the “[3H]amantadine uptake, % of Control, RPE-J” value with RPE-J cells [2] (compound 0.2 mM) is 10.7 ± 5.6 % of Control.
On the same counts, the results for `O=C(O)[C@H](O)[C@@H](O)[C@H](O)[C@H](O)CO` [Gluconate] are 91.7 ± 21.7 % of Control and 86.2 ± 23.4 % of Control.
In the case of `N[C@@H](CC(=O)O)C(=O)O` [L-Aspartic acid], the activity at 2500 µM in the data set on TR-iBRB2 cells [1] (setting [10]) came out at 101 ± 23%; in the data set on RPE-J cells [2] (setting [11]) it was 79.5 ± 12.7%.
As to `NCCc1c[nH]c2ccc(O)cc12` [Serotonin], the activity at 200 µM in the data set with TR-iBRB2 cells [1] (setting [10]) turned out to be 126 ± 60%; in the data set with RPE-J cells [2] (setting [11]), 158 ± 52%.
